For one assay, the system named is Raw 264.7 cells. Briefly: Nitric oxide (NO) production inhibitory activity in LPS-stimulated Raw 264.7 cells (Griess reagent). Type of assay: cell-based. Set-up: NO inhibition rate (%): concentration or dose not given beside the values. The note with it: for NO: Raw 264.7 cells, LPS 100 ng/ml, sample concentration not given; for NO inhibition rate (%): vs LPS-only group. As to the method: [Measurement of Anti-Inflammatory Effect in Raw 264.7 Cells] Experimental Example 1. Confirmation of Nitric Oxide Production Inhibitory Activity Nitric oxide (NO) measurement was measuring the amount of nitric oxide (NO) in the supernatant of cells as nitrite and nitrate. The safe form after oxidation from nitrite to nitrate was measured using a griess reagent (Sigma, USA). In a […], 3×10^5 cells were cultured for 24 hours. […] Then, all wells except the normal group were stimulated by adding 100 ng/ml Lipopolysaccharide (LPS). After reacting with the griess reagent for 5 minutes, the absorbance was measured at 540 nm. The calibration curve was prepared using sodium nitrite solution, and the concentration of nitrite was calculated through absorbance. The NO inhibition rate was evaluated by a method of comparing with the group treated only with LPS according to Equation 1 below. The result was shown in the following Tables 7, 8, 9, 10, 11 and 12 and FIGS. 2, 3, 4 and 5. NO inhibition rate (%)=100−[(NO production amount of sample addition group*×100)/NO production amount of sample non-addition group*] [Equation 1] *Lipopolysaccharide (LPS) treatment group
Background: Griess reagent forms a coloured azo dye with nitrite.

Assay [1] deals with indomethacin-induced gastric ulcer. The assay is described as follows: Gastric ulcer index / inhibition rate in indomethacin-induced animal model. Type of assay: in vivo, rats. The note with it: for Inhibition rate (%): gastric ulcer, rats, stomach excised 5 h after; for gastric ulcer inhibition rate compared to Stillen and Rebamipide (in words) / level of gastric ulcer inhibition rate despite the very small amount (in words): indomethacin-induced rats, summary of Table 13 and FIG. 7. From the text:
[Measurement of gastric ulcer inhibitory effect in animals]
Experimental Example 2. Confirmation of Gastric Ulcer Inhibition Rate
Evaluation of Gastric Ulcer Index in Indomethacin-Induced Animal Model
For test animals, 7-week-old male rats without specific pathogens (SPF) were randomly distributed to each group by a randomized method so that the average body weight was distributed as evenly as possible after the adaptation period (7 days). The administration route was single administration of artemisia extract, and rebamipide and ethyl acetate pretreated water extract of Cinnamomum cassia, fraction (N2-1), 3,4-dihydroxybenzaldehyde, ferulic acid, 4-hydroxycinnamaldehyde, as oral administration, respectively, and the dose was calculated and administered as 10 mL/Kg based on the body weight measured on the day of administration. All animals were fasted 48 hours before administration of the test substance and control drug, and then each test substance and control drug were orally administered, and at 30 minutes after administration, indomethacin prepared in advance was orally administered at a dose of 80 mg/kg. After anesthesia with diethyl ether at 5 hours after administration of indomethacin, the stomach was excised and the gastric mucosa was photographed with a digital camera. The area of the damaged part was analyzed using ImageJ software (NIH, Bethesda, MD). The gastric ulcer index was measured according to the following equation.
Gastric ulcer index (%)=(damaged area/total area)×100 [Equation 2]

[2] abbreviates: Prep-HPLC purified products from R2-2.
Where [3] appears, read: single oral dose 1.5 mg/kg 30 min before indomethacin 80 mg/kg p.o.
[4] abbreviates: Prep-HPLC purified products from N2-1.

As to `COc1cc(C(=O)O)cc(OC)c1O` [Compound E, syringic acid], in the assay with Raw 264.7 cells (setting [2]), the “NO” value was 47.83 µM and the “NO inhibition rate (%)” value is reported as 0%.

As to `O=C(NC(Cc1cc(=O)[nH]c2ccccc12)C(=O)O)c1ccc(Cl)cc1` (stereo not shown) [Rebamipide, reference compound], in assay [1] (single oral dose 30 mg/kg 30 min before indomethacin 80 mg/kg p.o.), the “Inhibition rate (%)” value turned out to be 21.5%.

Take `O=Cc1ccc(O)c(O)c1` [Compound D, 3,4-dihydroxybenzaldehyde]: in assay [1] (setting [3]), the “Inhibition rate (%)” value was 61.3%. For the same molecule, in assay [1], the “gastric ulcer inhibition rate compared to Stillen and Rebamipide (in words)” value was “excellent gastric ulcer inhibition rate”; the “level of gastric ulcer inhibition rate despite the very small amount (in words)” value is given as “very high level of gastric ulcer inhibition rate”. Further, in the assay on Raw 264.7 cells (setting [2]), the “NO” value came to 44.41 µM and the “NO inhibition rate (%)” value stood at 10%.

`O=C(O)CCc1ccccc1O` [Compound C, 3-(2-hydroxyphenyl)propanoic acid]: in the assay with Raw 264.7 cells (setting [4]), the “NO” value was determined as 48.54 µM and the “NO inhibition rate (%)” value came out at 0%.

As to `COc1cc(/C=C/C(=O)O)ccc1O` [Compound A, ferulic acid], the “Inhibition rate (%)” value in assay [1] (setting [3]) is 61.8%. For the same molecule, in assay [1], the “gastric ulcer inhibition rate compared to Stillen and Rebamipide (in words)” value was “excellent gastric ulcer inhibition rate”; the “level of gastric ulcer inhibition rate despite the very small amount (in words)” value is recorded as “very high level of gastric ulcer inhibition rate”. Further, in the assay with Raw 264.7 cells (setting [4]), the “NO” value came to 49.57 µM and the “NO inhibition rate (%)” value turned out to be 0%.

With `O=C/C=C/c1ccc(O)cc1` [Compound B, 4-hydroxycinnamaldehyde], the “Inhibition rate (%)” value in assay [1] (single oral dose 2.0 mg/kg 30 min before indomethacin 80 mg/kg p.o.) is 46.1%. For the same molecule, in assay [1], the “gastric ulcer inhibition rate compared to Stillen and Rebamipide (in words)” value is reported as “excellent gastric ulcer inhibition rate”; the “level of gastric ulcer inhibition rate despite the very small amount (in words)” value is reported as “very high level of gastric ulcer inhibition rate”. For the same molecule, in the assay with Raw 264.7 cells (setting [4]), the “NO” value stood at 35.18 µM and the “NO inhibition rate (%)” value turned out to be 29%.

Turning to `COc1cc(C(=O)O)ccc1O` [Compound F, vanillic acid], in the assay on Raw 264.7 cells (setting [2]), the “NO” value worked out at 49.88 µM and the “NO inhibition rate (%)” value was 0%.

Values taken from patent publication US20240115644A1, “COMPOSITION FOR PREVENTING, IMPROVING OR TREATING GASTRITIS OR PEPTIC ULCER COMPRISING EXTRACT OF CINNAMOMUM CASSIA, FRACTION OF SAID EXTRACT, ISOLATE OF SAID FRACTION OR COMPOUNDS ISOLATED THEREFROM” (CHONG KUN DANG PHARMACEUTICAL CORP., priority 2020, published 2024).
